Measured values taken from US12377077B2, “Methods and formulations to treat mitochondrial dysfunction” (The Board of Trustees of the Leland Stanford Junior …, priority 2018, dated 2025).
Entries after “also recorded” stand apart in the source; their conditions may differ. Values belong to the compound of their own block, whether it stands above or below them.

Legend:
[1] = system: COX10-deficient fibroblasts; assay: Cell viability by Calcein AM in mitochondrial stressor media; format: cell-based, human; conditions: FIG. 2B
Experimental: (§1) Fibroblasts previously derived from four patients with primary mitochondrial disease (Surf1, Complex I, Cox10, Polg), three patients with NGLY1 deficiency and four normal controls were used for the study. All samples were obtained with informed consent and approved by the Stanford IRB. Fibroblasts were maintained in DMEM medium containing 8.3 mM glucose and supplemented with 10% fetal bovine serum (FBS)(Fisher Scientific), 1% Penicillin-Streptomycin (10,000 U/mL)(Life Technologies), 1% glutaMAX (Life Technologies), 1% uridine (5 mg/ml) and 1% pyruvate (11 mg/ml) at 37° C., 5% CO2. For the screening of various compounds, 15×10^3 cells/500 ul media were seeded in quadruplets on 24 well microtiter plates. The following day, the medium was removed, wells washed with PBS and replaced with a mitochondrial stressor media containing DMEM, 1% Penicillin-Streptomycin (10,000 U/mL)(Life Technologies), 10% FCS (Fisher Scientific), 1 mM Galactose (Sigma Aldrich), and 25 μM sodium azide with or without the following compounds: 1 mM AICAR (Medchem Express), 1 mM Metformin (Sigma Aldrich), 100 μM PT1 (Santa Cruz Biotechnology), 100 μ[…] Express). Following treatment with the various compounds, tissue cultures were analyzed for growth, oxygen consumption rate, and ATP levels. Methods: Cell growth was measured by a fluorometric method using Calcein AM (Anaspec). Mitochondrial stressor media was removed, wells washed with PBS and then incubated with 500 ul/well of 800 nM Calcein AM in PBS for 30 min at 37 C, 5% CO2. Cell viability was measured by values obtained using a 485 nm excitation with the Flouroskan Ascent Microplate Fluorometer (Thermo Scientific).

[2] = system: POLG-deficient fibroblasts; assay: as above; format: cell-based, human; conditions: FIG. 2D
Experimental: as §1

[3] = system: SURF1-deficient fibroblasts; assay: as above; format: cell-based, human; conditions: for cellular viability, dose dependent manner: SURF1 deficient fibroblasts, FIG. 2F
Experimental: as §1

[4] = system: CI-deficient fibroblasts; assay: as above; format: cell-based, human; conditions: FIG. 2C
Experimental: Fibroblasts previously derived from four patients with primary mitochondrial disease (Surf1, Complex I, Cox10, Polg), three patients with NGLY1 deficiency and four normal controls were used for the study. All samples were obtained with informed consent and approved by the Stanford IRB. Fibroblasts were maintained in DMEM medium containing 8.3 mM glucose and supplemented with 10% fetal bovine serum (FBS)(Fisher Scientific), 1% Penicillin-Streptomycin (10,000 U/mL)(Life Technologies), 1% glutaMAX (Life Technologies), 1% uridine (5 mg/ml) and 1% pyruvate (11 mg/ml) at 37° C., 5% CO2.
For the screening of various compounds, 15×10^3 cells/500 ul media were seeded in quadruplets on 24 well microtiter plates. The following day, the medium was removed, wells washed with PBS and replaced with a mitochondrial stressor media containing DMEM, 1% Penicillin-Streptomycin (10,000 U/mL)(Life Technologies), 10% FCS (Fisher Scientific), 1 mM Galactose (Sigma Aldrich), and 25 μM sodium azide with or without the following compounds: 1 mM AICAR (Medchem Express), 1 mM Metformin (Sigma Aldrich), 100 μM PT1 (Santa Cruz Biotechnology), 100 μM A-769662 (Medchem Express), 100 μM C24 (Medchem Express). Following treatment with the various compounds, tissue cultures were analyzed for growth, oxygen consumption rate, and ATP levels.
Methods: Cell growth was measured by a fluorometric method using Calcein AM (Anaspec). Mitochondrial stressor media was removed, wells washed with PBS and then incubated with 500 ul/well of 800 nM Calcein AM in PBS for 30 min at 37 C, 5% CO2. Cell viability was measured by values obtained using a 485 nm excitation with the Flouroskan Ascent Microplate Fluorometer (Thermo Scientific).

[5] = system: phosphorylated ACC (pACC); assay: pACC western blot in mitochondrial-defective patient cells; format: cell-based, human; conditions: mitochondrial-defective patient cells vs DMSO; FIG. 16A
[6] = system: AMPK; assay: AMPK activity used in determining EC50 (FIG. 16B); format: biochemical
[7] = system: SURF1-deficient fibroblasts; assay: Cellular morphology by phase-contrast microscopy; format: cell-based, human; conditions: vs DMSO
Description: Fibroblasts in tissue culture were visualized by phase-contrast microscopy with a Leica DM IRB microscope at ×10 magnification, and images were taken with the Hamamatsu ORCA-ER camera.

[8] = system: Sco2 deficient mice; assay: Ocular structure by optical coherence tomography (OCT) in Sco2 mice; format: in vivo; conditions: for thickness of the retinal nerve fiber layer (RNFL): 10 mg/kg once daily oral gavage
Description: (§2) Methods: To examine the effects of AMPK agonists on in vivo systems with mitochondrial dysfunction, MK8722 was used to treat a mouse model of mitochondrial disease. These mice have mitochondrial Complex IV deficiency caused by deficient cytochrome C oxidase assembly protein, SCO2, and harbor a Sco2 knock-out (KO) allele and a Sco2 knock-in (KI) allele expressing an E→K mutation at position 129 (E129K). The E129K mutation corresponds to the E140K mutation found in almost all human SCO2-mutated patients. (See e.g., Yang et al, Analysis of mouse models of cytochrome c oxidase deficiency owing to mutations in Sco2. Hum Mol Genet. 2010 Jan. 1; 19(1):170-80; the disclosure of which is incorporated by reference herein in its entirety.) The predominant phenotype of Sco2 deficient mice is reduced locomotor function and ocular defects, both common findings in patients with primary mitochondrial disease. The Sco2 mice were grouped into four treatment groups: Sco2 KI/KO+MK8722, Sco2 KI/KO+DMSO (vehicle), Control KI/WT+MK8722, Control KI/WT+DMSO with 7-9 mice per group. 1.5-month old Sco2 mice were treated once daily by oral gavage with MK8722 (10 mg/kg) or vehicle (DMSO) for 14 weeks. Locomotor function was evaluated using the activity chamber, rotarod, and hanging-wire tests and ocular structure using optical coherence tomography (OCT).

[9] = system: Sco2 deficient mice; assay: Activity chamber test in Sco2 mice; format: in vivo
Description: as §2

[10] = system: Sco2 deficient mice; assay: Rotarod running test in Sco2 mice; format: in vivo; conditions: KO/KI mice; vehicle 176.1 sec
Description: as §2

[11] = system: Sco2 deficient mice; assay: Hanging wire test in Sco2 mice; format: in vivo; conditions: KO/KI mice; vehicle 173.2 sec
Description: as §2

[12] = system: mitochondrial cytochrome C oxidase (CytoC) and succinate dehydrogenase (SDH) activities; assay: Histological staining of skeletal muscle for mitochondrial enzyme activities; format: in vivo; conditions: Sco2 KI/KO mice vs vehicle, FIG. 11D
Description: as §2

[13] = system: glycogen content; assay: Histological assessment of glycogen in skeletal muscle; format: in vivo; conditions: Sco2 KI/KO mice vs untreated; FIG. 11E
Description: as §2

[14] = system: phosphorylated ACC (pACC); assay: pACC western blot in skeletal muscle of Sco2 KI/KO mice; format: in vivo; conditions: KI/KO mice vs vehicle; FIGS. 11F-11G
Description: as §2

SMILES: NC(=O)c1ncn([C@@H]2O[C@H](CO)[C@@H](O)[C@H]2O)c1N [AICAR]
survival / viability [1]: does not improve cell viability; also recorded: did not improve survival
survival / viability [2]: does not improve cell viability; also recorded: did not improve survival
mean cell survival increased ([3]; SURF1 cells, vs untreated control treated with PBS): 57%
survival / viability [4]: does not improve cell viability; also recorded: did not improve survival

SMILES: N#Cc1c(O)c2c(-c3ccc(-c4ccccc4O)cc3)csc2[nH]c1=O [Compound A-769662]
survival / viability [2]: improved survival
survival / viability [4]: improved survival

EC50 [6]: 232 nM
SMILES: O=C(O)c1c[nH]c2cc(Cl)c(-c3ccc(C4(O)CCC4)s3)cc12 [EV8016, 6-chloro-5-(5-(1-hydroxycyclobutyl)thiophen-2-yl)-1H-indole-3-carboxylic acid]
ACC phosphorylation (AMPK activation) [5]: capable of activating AMPK

SMILES: O[C@@H]1CO[C@H]2[C@@H]1OC[C@H]2Oc1nc2nc(-c3ccc(-c4ccccc4)cc3)c(Cl)cc2[nH]1 [MK-8722]
cellular viability, dose dependent manner [3]: increasing levels of cellular viability; also recorded: improved the viability
cellular morphology [7]: improved cellular morphology; also recorded: improved cell morphology
thickness of the retinal nerve fiber layer (RNFL) ([8]; KI/WT mice, vehicle 72.7 μm): 74.7 μm
thickness of the retinal nerve fiber layer (RNFL) ([8]; Sco2 KI/KO mice, vehicle 74.1 μm): 77 μm
retinal thickness, degradation ([8]; treated vs vehicle (VEH) mice, FIG. 9E): less degradation
distance moved in the activity chamber ([9]; KO/KI mice, 8 weeks of treatment, vehicle 1516.7 cm): 2337.8 cm
activity in activity chamber ([9]; knock-out/knock-in mice, FIG. 11A): returns to levels comparable with knock-in/wild-type mice
rotarod running time [10]: 248.1 s
hanging wire time [11]: 312.5 s
intensity of histological stains indicative of CytoC and SDH activities [12]: increased
glycogen content of skeletal muscle [13]: increased glycogen content
ACC phosphorylation in skeletal muscle [14]: increased phosphorylation of ACC; also recorded: increase in ACC phosphorylation

SMILES: OCC1(c2ccc(-c3cc4nc(O[C@@H]5CO[C@H]6[C@@H]5OC[C@H]6O)[nH]c4cc3Cl)cc2)CC1 [PF-739]
cellular viability, dose dependent manner [3]: increasing levels of cellular viability; also recorded: improved the viability
cellular morphology [7]: improved cellular morphology; also recorded: improved cell morphology

SMILES: O=C(O)c1c[nH]c2cc(Cl)c(-c3ccc(C4(O)CCC4)cc3)cc12 [PF-06409577]
cellular viability, dose dependent manner [3]: increasing levels of cellular viability
cellular viability, dose dependent manner ([3]; listed as PF-04609577): improved the viability
cellular morphology [7]: improved cellular morphology
cellular morphology ([7]; listed as PF-04609577): improved cell morphology

SMILES: Cc1ccc(OCCSc2ncccn2)c(Br)c1 [ZLN024]
survival / viability [4]: improved survival
